Laboratory results published in PubChem BioAssay (NCI).
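Following 48 hours of exposure in 96-well plates, responses at five concentrations were used to interpolate endpoints linearly. Abbreviation: GI50, concentration required for 50% inhibition of growth. Definition used: TGI = concentration required for complete inhibition of growth.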

Tests used:
Assay in all cases: inhibition of tumour cell growth, NCI panel, 48 h
COLO 205 colon = test system: COLO 205 colon
UACC-62 melanoma = test system: UACC-62 melanoma
SK-MEL-28 melanoma = test system: SK-MEL-28 melanoma
OVCAR-5 ovarian = test system: OVCAR-5 ovarian
EKVX NSCLC = test system: EKVX NSCLC
OVCAR-8 ovarian = test system: OVCAR-8 ovarian
NCI-H23 lung = test system: NCI-H23 lung
SW-620 colon = test system: SW-620 colon
LOX IMVI melanoma = test system: LOX IMVI melanoma
NCI-H226 lung = test system: NCI-H226 lung

SMILES | GI50 (COLO 205 colon) [µM] | TGI (COLO 205 colon) [µM] | GI50 (UACC-62 melanoma) [µM] | TGI (UACC-62 melanoma) [µM] | GI50 (SK-MEL-28 melanoma) [µM] | TGI (SK-MEL-28 melanoma) [µM] | GI50 (OVCAR-5 ovarian) [µM] | TGI (OVCAR-5 ovarian) [µM] | GI50 (EKVX NSCLC) [µM] | TGI (EKVX NSCLC) [µM] | GI50 (OVCAR-8 ovarian) [µM] | TGI (OVCAR-8 ovarian) [µM] | GI50 (NCI-H23 lung) [µM] | TGI (NCI-H23 lung) [µM] | GI50 (SW-620 colon) [µM] | TGI (SW-620 colon) [µM] | GI50 (LOX IMVI melanoma) [µM] | TGI (LOX IMVI melanoma) [µM] | GI50 (NCI-H226 lung) [µM] | TGI (NCI-H226 lung) [µM]
Oc1ccc(NCc2nc3ccccc3[nH]2)cc1 | 69.1 | > 100 | 70.5 | > 100 | 38.4 | > 100 | > 100 | > 100 | 46.2 | > 100 | 26.8 | > 100 | 54.5 | > 100 | > 100 | > 100 | 73.9 | > 100 | > 100 | > 100
O=C(/C=C/c1c(O)ccc2ccccc12)c1cccc(O)c1 | – | > 100 | – | 69.1 | – | > 100 | – | > 100 | – | > 100 | – | > 100 | – | > 100 | – | > 100 | – | > 72.1 | – | > 100
N#Cc1cc([N+](=O)[O-])ccc1NC(=O)C(=O)Nc1n[nH]c(N)n1 | – | > 100 | – | > 100 | – | > 100 | – | > 100 | – | > 100 | – | > 100 | – | > 100 | – | > 100 | – | > 100 | – | > 100
CC(=O)CNC(=O)OC(C)(C)C | – | – | – | > 100 | – | > 100 | – | > 100 | – | > 100 | – | > 100 | – | > 100 | – | > 100 | – | – | – | > 100
O/N=C/C1c2ccccc2-c2ccccc21 | – | 30.7 | – | 30.2 | – | 29.2 | – | – | – | 28.2 | – | 41.5 | – | 37.6 | – | 40.7 | – | 63.3 | – | 33.6
OCC(O)CC[CH2][Sn]([Br])([c]1ccccc1)[c]1ccccc1 (centres undefined) | > 100 | > 100 | 65.8 | > 100 | – | – | > 100 | > 100 | > 100 | > 100 | > 100 | > 100 | > 100 | > 100 | > 100 | > 100 | > 100 | > 100 | > 100 | > 100
C=CCCCCCCCCC(=O)[O][Sn]([CH2]CCC)([CH2]CCC)[CH2]CCC | 0.172 | 0.371 | 0.168 | 0.349 | 0.157 | 0.296 | 0.128 | 0.297 | 0.131 | 0.32 | – | – | 0.115 | 0.254 | 0.162 | 0.332 | 0.138 | 0.278 | 0.17 | 0.325
CC1=NN(C(=O)Nc2ccccc2)C(=O)C2CCC(=O)N12 (centres undefined) | – | > 100 | – | > 100 | – | > 100 | – | – | – | > 100 | – | > 100 | – | > 100 | – | > 100 | – | > 100 | – | –
Nc1nc(Cl)c2ncn(Cc3ccc(C45CC6CC(CC(C6)C4)C5)c(O)c3)c2n1 | 5.43 | 27.8 | 4.07 | 18.5 | 10.6 | 25.9 | 6.13 | 20.6 | 2.99 | 21.8 | 2.93 | 14.1 | – | – | 2.95 | 13.3 | 2.38 | 13 | 12 | 42.9
O=C1CCC2(c3ccc(F)cc3)Nc3cc(Cl)ccc3N12 (centres undefined) | – | > 100 | – | > 100 | – | > 100 | – | – | – | > 100 | – | > 100 | – | > 100 | – | > 100 | – | > 100 | – | > 100
CC/C(=C(/c1ccc(O)cc1)c1ccc(OCCNC)cc1)c1ccccc1 | 1.97 | 3.59 | 1.8 | 3.54 | 1.71 | 3.21 | 2.37 | 6.25 | – | – | 2.14 | 5.13 | 2.6 | 7.25 | 1.72 | 3.26 | 1.75 | 3.17 | 5.03 | 20.3
O=C1O[C@@H](c2ccc3c(c2)OCO3)C2C(=O)O[C@@H](c3ccc4c(c3)OCO4)C12 (some centres undefined) | – | > 100 | – | > 100 | – | > 100 | – | – | – | > 100 | – | > 100 | – | > 100 | – | > 100 | – | > 100 | – | > 100
COc1cc(C2=NOC(c3cc(OC)c(OC)c(OC)c3)C2)ccc1OCCCCOc1cc2c(cc1OC)C(=O)N1CCC[C@H]1C=N2 (some centres undefined) | 0.245 | 0.586 | 0.171 | 0.335 | 0.229 | 0.49 | 0.4 | 1.26 | 0.471 | 5.43 | 0.39 | 10.9 | 0.241 | 0.559 | 0.246 | 0.855 | 0.215 | 0.495 | – | –
CCC(C)c1c(Cl)nc(Cl)nc1Cl (centres undefined) | – | – | – | 52.8 | – | 22.5 | – | 33.2 | – | 48.8 | – | 38.3 | – | 15.5 | – | > 100 | – | > 100 | – | 7.75
COc1ccc(C2=CC3CCC2C3)cc1 (centres undefined) | – | > 100 | – | > 100 | – | > 100 | – | > 100 | – | > 100 | – | > 100 | – | > 100 | – | > 100 | – | > 100 | – | –
O=C1Nc2c(C(F)(F)F)cccc2[C@]1(c1ccc(O)cc1)c1ccc(OC(F)(F)F)cc1 | 3.26 | 25.4 | 11.9 | 25 | 15 | 28.8 | 12 | 24.4 | 8.09 | 21.6 | 5.29 | 21.8 | 11 | 26.4 | 14.5 | 32.2 | – | – | 11.6 | 32.4
COc1ccc(/C=C/CN(C)CCc2ccccc2)cc1OC | – | > 100 | – | > 100 | – | > 100 | – | > 100 | – | > 100 | – | > 100 | – | > 100 | – | > 100 | – | – | – | > 100
CC1=CC(=Nc2ccc(N(CCCl)CCCl)cc2)C=C(C)C1=O | 1.49 | 4.67 | 1.12 | 6.47 | 2.48 | 10.1 | 2.72 | 11.3 | 3.31 | 35 | – | – | 0.768 | 4.36 | 0.816 | 4.6 | – | – | 1.2 | 4.83
